# According to patent US8431593B2, “Heteroaryl amide derivatives” (H. Lundbeck A/S, priority 2006, dated 2013):
# Molecular target: T1, P2X7 receptor (Homo sapiens, UniProt Q99572)
# T1 construct: host or cells: SH-SY5Y
# T1 sequence (Q99572 1-595): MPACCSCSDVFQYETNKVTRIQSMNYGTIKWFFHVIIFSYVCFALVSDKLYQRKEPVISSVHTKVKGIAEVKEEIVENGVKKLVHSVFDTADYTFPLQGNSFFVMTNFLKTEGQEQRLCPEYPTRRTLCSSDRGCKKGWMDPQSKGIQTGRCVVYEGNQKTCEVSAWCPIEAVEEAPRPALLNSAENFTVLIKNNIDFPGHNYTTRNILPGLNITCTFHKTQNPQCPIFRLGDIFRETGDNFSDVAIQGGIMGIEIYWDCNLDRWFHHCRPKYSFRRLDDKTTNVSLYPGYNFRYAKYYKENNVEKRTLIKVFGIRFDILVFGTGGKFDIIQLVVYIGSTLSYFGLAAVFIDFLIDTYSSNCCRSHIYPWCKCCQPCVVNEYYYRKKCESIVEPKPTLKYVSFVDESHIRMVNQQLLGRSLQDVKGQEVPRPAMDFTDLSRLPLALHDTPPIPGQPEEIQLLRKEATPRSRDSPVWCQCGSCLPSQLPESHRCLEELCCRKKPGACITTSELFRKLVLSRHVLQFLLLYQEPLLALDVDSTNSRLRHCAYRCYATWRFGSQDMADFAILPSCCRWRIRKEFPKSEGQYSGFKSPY
# Assay: P2X7 calcium mobilization assay, high throughput, antagonist activity (Example 4A)
# Assay type: cell-based
# Conditions: not given
# Procedure: One day prior to the experiment, cells are plated at a density of 100,000 cells/well in a 96 well black/clear TC plate (Corning® Costar®, Sigma-Aldrich Co., St. Louis, Mo.). […] After one hour dye incubation, wells are rinsed once with 50 μL assay solution, and are then incubated for an hour at room temperature with 100 μL assay solution containing the test compound. […] After the one hour incubation, plates are transferred to a FLIPR^TETRA instrument (Molecular Devices, Sunnyvale, Calif.) for calcium mobilization analysis.
# First, the average maximum relative fluorescent unit (RFU) response from the negative control wells (no agonist) is subtracted from the maximum response detected for each of the other experimental wells. Second, average maximum RFU response is calculated for the positive control wells (agonist wells).
row,SMILES,IC50 [µM]
1,"O=C(NCC12CC3CC(CC(C3)C1)C2)c1cccc2nc(CCO)cn12 [Compound 6, N-(adamantan-1-ylmethyl)-2-(2-hydroxyethyl)imi-dazo[1,2-a]pyridine-5-carboxamide]",< 2
2,"O=C(NCCO)c1cn2c(C(=O)NCC34CC5CC(CC(C5)C3)C4)cccc2n1 [Compound 8, 5-N-(adamantan-1-ylmethyl)--(2-hydroxyethyl)imi-dazo[1,2-a]pyridine-2,5-dicarboxamide]",< 2
3,"CC(C)CNCc1cn2c(C(=O)NCC34CC5CC(CC(C5)C3)C4)cccc2n1 [Compound 12, N-(adamantan-1-ylmethyl)-2-[(isobutyl-amino)methyl]imi-dazo[1,2-a]pyridine-5-carboxamide]",< 2
4,"O=C(NCC12CC3CC(CC(C3)C1)C2)c1cccc2nc(CN3CCN(CCO)CC3)cn12 [Compound 13, N-(adamantan-1-ylmethyl)-2-{[4-(2-hydroxyethyl)piperazin-1-yl]methyl}imi-dazo[1,2-a]pyridine-5-carboxamide]",< 2
5,"O=C(O)Cc1cn2c(C(=O)NCC34CC5CC(CC(C5)C3)C4)cccc2n1 [Compound 16, {5-[(adamantan-1-ylmethyl)carbamoyl]imi-dazo[1,2-a]pyridin-2-yl}acetic acid]",< 2
6,"O=C(Cc1cn2c(C(=O)NCC34CC5CC(CC(C5)C3)C4)cccc2n1)NCCCO [Compound 27, N-(adamantan-1-ylmethyl)-2-{2-[(3-hydroxypropyl)amino]-2-oxoethyl}imi-dazo[1,2-a]pyridine-5-carboxamide]",< 2
7,"C[C@@H](O)CNC(=O)Cc1cn2c(C(=O)NCC34CC5CC(CC(C5)C3)C4)cccc2n1 [Compound 28, N-(adamantan-1-ylmethyl)-2-(2-{[(2R)-2-hydroxy-propyl]amino}-2-oxoethyl)imi-dazo[1,2-a]pyridine-5-carboxamide]",< 2
8,"C[C@H](O)CNC(=O)Cc1cn2c(C(=O)NCC34CC5CC(CC(C5)C3)C4)cccc2n1 [Compound 29, N-(adamantan-1-ylmethyl)-2-(2-{[(2S)-2-hydroxy-propyl]amino}-2-oxoethyl)imi-dazo[1,2-a]pyridine-5-carboxamide]",< 2
9,"CCC(O)CNC(=O)Cc1cn2c(C(=O)NCC34CC5CC(CC(C5)C3)C4)cccc2n1 (stereo not shown) [Compound 30, N-(adamantan-1-ylmethyl)-2-{2-[(2-hydroxy-butyl)amino]-2-oxoethyl}imi-dazo[1,2-a]pyridine-5-carboxamide]",< 2

# Same assay, conditions: SH-SY5Y cells; 50% decrease in fluorescence response to 80 μM BzATP; read-out: IC50
row,IC50 [µM],SMILES
1,< 2,"O=C(NCC12CC3CC(CC(C3)C1)C2)c1cccc2nc(CN3CCNCC3)cn12 [Compound 5, N-(adamantan-1-ylmethyl)-2-(piperazin-1-ylmethyl)imidazo[1,2-a]pyridine-5-carboxamide]"
2,< 2,"CCOC(=O)c1cn2c(C(=O)NCC34CC5CC(CC(C5)C3)C4)c(Cl)ccc2n1 [Compound 7, 5-[(adamantan-1-ylmethyl)-carbamoyl]-6-chloro-imidazo[1,2-a]pyridine-2-carboxylic acid ethyl ester]"
3,< 2,"CN(CCO)C(=O)c1cn2c(C(=O)NCC34CC5CC(CC(C5)C3)C4)cccc2n1 [Compound 9, 5-N-(adamantan-1-ylmethyl)--(2-hydroxyethyl)-- methylimidazo[1,2-a]pyridine-2,5-dicarboxamide]"
4,< 2,"CCOC(=O)c1nc2cccc(C(=O)NCC34CC5CC(CC(C5)C3)C4)n2c1Cl [Compound 15, ethyl 5-[(adamantan-1-ylmethyl)carbamoyl]-3-chloroimidazo[1,2-a]pyridine-2-carboxylate]"
5,< 2,"CCNC(=O)Cc1cn2c(C(=O)NCC34CC5CC(CC(C5)C3)C4)cccc2n1 [Compound 17, N-(adamantan-1-ylmethyl)-2-[2-(ethylamino)-2-oxoethyl]imidazo[1,2-a]pyridine-5-carboxamide]"
6,< 2,"CC(C)CNC(=O)Cc1cn2c(C(=O)NCC34CC5CC(CC(C5)C3)C4)cccc2n1 [Compound 18, N-(adamantan-1-ylmethyl)-2-[2 (isobutylamino)-2-oxoethyl]imidazo[1,2-a]pyridine-5-carboxamide]"
7,< 2,"CN(C)C(=O)CNC(=O)Cc1cn2c(C(=O)NCC34CC5CC(CC(C5)C3)C4)cccc2n1 [Compound 20, N-(adamantan-1-ylmethyl)-2-(2-{[2-(dimethylamino)-2-oxoethyl]amino}-2-oxoethyl)imidazo[1,2-a]pyridine-5-carboxamide]"
8,< 2,"NC(=O)CNC(=O)Cc1cn2c(C(=O)NCC34CC5CC(CC(C5)C3)C4)cccc2n1 [Compound 24, N-(adamantan-1-ylmethyl)-2-{2-[(2-amino-2-oxoethyl)amino]-2-oxoethyl}imidazo[1,2-a]pyridine-5-carboxamide]"
9,< 2,"CC(NC(=O)Cc1cn2c(C(=O)NCC34CC5CC(CC(C5)C3)C4)cccc2n1)C(N)=O (stereo not shown) [Compound 25, N-(adamantan-1-ylmethyl)-2-{2-[(2-amino-1-methyl-2-oxoethyl)amino]-2-oxoethyl}imidazo[1,2-a]pyridine-5-carboxamide]"
10,< 2,"O=C(Cc1cn2c(C(=O)NCC34CC5CC(CC(C5)C3)C4)cccc2n1)NCCO [Compound 26, N-(adamantan-1-ylmethyl)-2-{2-[(2-hydroxyethyl)amino]-2-oxoethyl}imidazo[1,2-a]pyridine-5-carboxamide]"
11,< 2,"CC(O)CCNC(=O)Cc1cn2c(C(=O)NCC34CC5CC(CC(C5)C3)C4)cccc2n1 (stereo not shown) [Compound 31, N-(adamantan-1-ylmethyl)-2-{2-[(3-hydroxybutyl)amino]-2-oxoethyl}imidazo[1,2-a]pyridine-5-carboxamide]"
12,< 2,"CC(C)[C@H](CO)NC(=O)Cc1cn2c(C(=O)NCC34CC5CC(CC(C5)C3)C4)cccc2n1 [Compound 32, N-(adamantan-1-ylmethyl)-2-(2-{[(1R)-1-(hydroxymethyl)-2-methylpropyl]amino}-2-oxoethyl)imidazo[1,2-a]pyridine-5-carboxamide]"
13,< 2,"CC(O)CNC(=O)Cc1cn2c(C(=O)NCC34CC5CC(CC(C5)C3)C4)cccc2n1 (stereo not shown) [Compound 33, N-(adamantan-1-ylmethyl)-2-{2-[(2-hydroxypropyl)amino]-2-oxoethyl}imidazo[1,2-a]pyridine-5-carboxamide]"
14,< 2,"COCC1CCN(C(=O)Cc2cn3c(C(=O)NCC45CC6CC(CC(C6)C4)C5)cccc3n2)CC1 [Compound 34, N-(adamantan-1-ylmethyl)-2-{2-[4-(methoxy-methyl)piperidin-1-yl]-2-oxoethyl}imidazo[1,2-a]pyridine-5-carboxamide]"
15,< 2,"COCCC1CCN(C(=O)Cc2cn3c(C(=O)NCC45CC6CC(CC(C6)C4)C5)cccc3n2)CC1 [Compound 35, N-(adamantan-1-ylmethyl)-2-{2-[4-(2-methoxyethyl)piperidin-1-yl]-2-oxoethyl}imidazo[1,2-a]pyridine-5-carboxamide]"
16,< 2,"CN(C(=O)Cc1cn2c(C(=O)NCC34CC5CC(CC(C5)C3)C4)cccc2n1)C1CCOC1 (stereo not shown) [Compound 37, N-(adamantan-1-ylmethyl)-2-{2-[methyl(tetrahydrofuran-3-yl)amino]-2-oxoethyl}imidazo[1,2-a]pyridine-5-carboxamide]"
17,< 2,"COC1CCN(C(=O)Cc2cn3c(C(=O)NCC45CC6CC(CC(C6)C4)C5)cccc3n2)CC1 [Compound 42, N-(adamantan-1-ylmethyl)-2-[2-(4-methoxypiperidin-1-yl)-2-oxoethyl]imidazo[1,2-a]pyridine-5-carboxamide]"
18,< 2,CS(=O)(=O)C1CCN(C(=O)Cc2cn3c(C(=O)NCC45CC6CC(CC(C6)C4)C5)cccc3n2)CC1 [Compound 43]
19,< 2,"CS(=O)(=O)N1CCN(C(=O)Cc2cn3c(C(=O)NCC45CC6CC(CC(C6)C4)C5)cccc3n2)CC1 [Compound 44, N-(adamantan-1-ylmethyl)-2-{2-[4-(methylsulfonyl)piperazin-1-yl]-2-oxoethyl}imidazo[1,2-a]pyridine-5-carboxamide]"
20,< 2,"CN(CCNS(C)(=O)=O)C(=O)Cc1cn2c(C(=O)NCC34CC5CC(CC(C5)C3)C4)cccc2n1 [Compound 45, N-(adamantan-1-ylmethyl)-2-[2-(methyl{2-[(methyl-sulfonyl)amino]eth-yl}amino)-2-oxoethyl]imidazo[1,2-a]pyridine-5-carboxamide]"
21,< 2,"O=C1CN(C(=O)Cc2cn3c(C(=O)NCC45CC6CC(CC(C6)C4)C5)cccc3n2)CCN1 [Compound 46, N-(adamantan-1-ylmethyl)-2-[2-oxo-2-(3-oxopiperazin-1-yl)ethyl]imidazo[1,2-a]pyridine-5-carboxamide]"

row,SMILES,IC50 [µM]
1,"CN1CCC(N(C)C(=O)Cc2cn3c(C(=O)NCC45CC6CC(CC(C6)C4)C5)cccc3n2)C1 (stereo not shown) [Compound 39, N-(adamantan-1-ylmethyl)-2-{2-[methyl(1-methylpyrrolidin-3-yl)amino]-2-oxoethyl}imidazo[1,2-a]pyridine-5-carboxamide]",< 2
